Test results published in PubChem BioAssay (NCI).
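Test compounds were applied to cells in 96-well plates for 48 hours at 5 doses. At the GI50, growth is halved. TGI: concentration producing complete growth inhibition.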

How the values were obtained:
Experiment in all cases: growth of human tumour cells (NCI), 48 h
[1] = test system: U251 CNS
[2] = test system: MOLT-4 leukemia
[3] = test system: SNB-75 CNS
[4] = test system: DU-145 prostate
[5] = test system: HOP-62 NSCLC
[6] = test system: NCI-H23 lung
[7] = test system: RPMI-8226 leukemia
[8] = test system: PC-3 prostate
[9] = test system: MDA-MB-231 breast
[10] = test system: OVCAR-8 ovarian

`N=C(N)c1ccc(-c2ccc(-c3cccs3)s2)nc1` gave a GI50 [1] of 1.66 µM, a TGI [1] of 3.35 µM and a GI50 [2] of 1.96 µM. For the same compound, the TGI [2] was 4.13 µM, the GI50 [3] was 1.78 µM and the TGI [3] was 4.52 µM. The GI50 [4] was 1.8 µM, the TGI [4] was 4.04 µM and the GI50 [5] was 1.94 µM. For the same compound, the TGI [5] was 5.17 µM, the GI50 [6] was 3.67 µM and the TGI [6] was 18.9 µM. The GI50 [7] was 0.434 µM, the TGI [7] was 2.78 µM and the GI50 [8] was 1.88 µM. For the same compound, the TGI [8] was 6.11 µM, the GI50 [9] was 1.55 µM and the TGI [9] was 3.39 µM. It also gave a GI50 [10] of 1.59 µM and a TGI [10] of 4.06 µM.
`O=C(N/N=C\c1ccc(N(CCCl)CCCl)cc1Cl)c1cccnc1` gave a GI50 [1] of 10.4 µM, a TGI [1] of 94.1 µM and a GI50 [2] of 10.5 µM. It also gave a TGI [2] of 42.7 µM, a GI50 [3] of 20.1 µM and a TGI [3] of 73.7 µM. It also gave a GI50 [4] of 16.2 µM, a TGI [4] of 59.6 µM and a GI50 [5] of 13.6 µM. It also gave a TGI [5] greater than 78 µM, a GI50 [6] of 9.59 µM and a TGI [6] of 54.9 µM. It also gave a GI50 [7] of 12.2 µM, a TGI [7] of 41.4 µM and a GI50 [8] of 19.2 µM. The TGI [8] was greater than 100 µM, the GI50 [9] was 14.1 µM and the TGI [9] was 62.3 µM. The GI50 [10] was 21.7 µM and the TGI [10] was greater than 88.8 µM.
`COc1ccc(/C=C/C(=O)c2cc3c(N)c(C(=O)Nc4ccccc4)sc3nc2C)cc1` was tested, and the GI50 [1] was 0.325 µM, the TGI [1] was 8.24 µM and the GI50 [2] was 0.318 µM. The TGI [2] was greater than 50 µM, the GI50 [3] was 0.0933 µM and the GI50 [4] was 0.19 µM. For the same compound, the TGI [4] was greater than 22.9 µM, the GI50 [5] was 0.252 µM and the TGI [5] was greater than 22.5 µM. It also gave a GI50 [6] of 0.227 µM, a GI50 [7] of 0.34 µM and a TGI [7] greater than 10.8 µM. The GI50 [8] was 0.184 µM, the TGI [8] was greater than 50 µM and the GI50 [9] was 0.377 µM. The TGI [9] was greater than 31.8 µM, the GI50 [10] was 0.277 µM and the TGI [10] was greater than 50 µM.
With `CC1/C(=N/Nc2ccc([N+](=O)[O-])cc2)CC2C3(C)CCC2(C(C)C(=O)O)C(=O)C13` (stereo not drawn) the GI50 [1] was 30.2 µM, the TGI [1] was greater than 100 µM and the GI50 [2] was 22.5 µM. It also gave a TGI [2] greater than 100 µM, a GI50 [3] greater than 100 µM and a TGI [3] greater than 100 µM. It also gave a GI50 [4] greater than 100 µM, a TGI [4] greater than 100 µM and a GI50 [5] of 95 µM. It also gave a TGI [5] greater than 100 µM, a GI50 [6] of 29.1 µM and a TGI [6] greater than 100 µM. It also gave a GI50 [7] of 2.95 µM, a TGI [7] of 24 µM and a GI50 [8] of 34.4 µM. It also gave a TGI [8] greater than 100 µM, a GI50 [9] of 4.06 µM and a TGI [9] greater than 100 µM. For the same compound, the GI50 [10] was 8.17 µM and the TGI [10] was greater than 100 µM.
`C=C1CC[C@@H]2[C@](C)(COC(C)=O)[C@H](OC(C)=O)CC[C@@]2(C)[C@@H]1C/C=C1/C(=O)OC[C@H]1OC(C)=O` showed a GI50 [1] of 6.09 µM, a TGI [1] of 19.3 µM and a GI50 [2] of 3.8 µM. It also gave a TGI [2] of 16.1 µM, a GI50 [3] of 2.83 µM and a TGI [3] of 14.2 µM. It also gave a GI50 [4] of 4.47 µM, a TGI [4] of 14.7 µM and a GI50 [5] of 4.4 µM. For the same compound, the TGI [5] was 21.4 µM, the GI50 [6] was 6.22 µM and the TGI [6] was 23 µM. For the same compound, the GI50 [7] was 2.06 µM, the TGI [7] was 7.68 µM and the GI50 [8] was 6.07 µM. The TGI [8] was 19.9 µM, the GI50 [9] was 12.5 µM and the TGI [9] was 27.1 µM. For the same compound, the GI50 [10] was 3.38 µM and the TGI [10] was 22 µM.
Work on `COC(=O)c1cc2oc(/C=C3\SC(=S)N(NC(C)=O)C3=O)cc2n1Cc1ccccc1` yielded a GI50 [1] of 1.37 µM, a TGI [1] of 4.49 µM and a GI50 [2] of 1.97 µM. It also gave a TGI [2] greater than 50 µM, a GI50 [3] of 7.67 µM and a TGI [3] of 25.4 µM. The GI50 [4] was 1.7 µM, the TGI [4] was 9.85 µM and the GI50 [5] was 9.72 µM. It also gave a TGI [5] of 20.7 µM, a GI50 [6] of 7.12 µM and a TGI [6] of 16.8 µM. The GI50 [7] was 0.758 µM, the TGI [7] was 5.55 µM and the GI50 [8] was 1.61 µM. The TGI [8] was 9.82 µM, the GI50 [9] was 9.02 µM and the TGI [9] was 17.4 µM. It also gave a GI50 [10] of 2.68 µM and a TGI [10] of 19.4 µM.
With `CCCN(CCC)C(=O)[C@H](CC)[C@@H]1CC[C@@H](C)[C@@H]([C@H](C)[C@@H](O)[C@@H](C)C(=O)[C@H](CC)C2O[C@]3(C=C[C@@H](O)[C@]4(CC[C@@](C)([C@H]5CC[C@](O)(CC)[C@H](C)O5)O4)O3)[C@H](C)C[C@@H]2C)O1` (stereo partly drawn) the GI50 [1] was 2.87 µM, the TGI [1] was 9.87 µM and the GI50 [2] was 2.39 µM. For the same compound, the TGI [2] was 6.41 µM, the GI50 [3] was 1.73 µM and the TGI [3] was 14.4 µM. For the same compound, the GI50 [4] was 2.05 µM, the TGI [4] was 4.21 µM and the GI50 [5] was 3.33 µM. For the same compound, the TGI [5] was 13.6 µM, the GI50 [6] was 2.52 µM and the TGI [6] was 7.01 µM. For the same compound, the GI50 [7] was 1.77 µM, the TGI [7] was 6.06 µM and the GI50 [8] was 2.05 µM. It also gave a TGI [8] of 11 µM, a GI50 [9] of 1.62 µM and a TGI [9] of 3.28 µM. It also gave a GI50 [10] of 3.5 µM and a TGI [10] of 24.6 µM.
With `Oc1c(N=Nc2ccccc2)c2ccccc2c2ccc3ccccc3c12` the TGI [1] was greater than 100 µM, the TGI [2] was greater than 100 µM and the TGI [3] was greater than 100 µM. For the same compound, the TGI [4] was greater than 100 µM, the TGI [5] was greater than 100 µM and the TGI [6] was greater than 100 µM. For the same compound, the TGI [7] was greater than 100 µM, the TGI [8] was greater than 100 µM and the TGI [9] was greater than 100 µM. It also gave a TGI [10] greater than 100 µM.
With `C=CC(=O)Nc1cccc(C)c1Nc1ncc2cc(-c3c(Cl)c(OC)cc(OC)c3Cl)ccc2n1` the GI50 [1] was 2.3 µM, the TGI [1] was 16.5 µM and the GI50 [2] was 1.76 µM. The TGI [2] was 7.61 µM, the GI50 [3] was 2.57 µM and the TGI [3] was 44.9 µM. It also gave a GI50 [4] of 3.63 µM, a TGI [4] greater than 100 µM and a GI50 [5] of 8.86 µM. It also gave a TGI [5] of 50 µM, a GI50 [6] of 9.31 µM and a TGI [6] of 34.2 µM. The GI50 [7] was 1.44 µM, the TGI [7] was 7.54 µM and the GI50 [8] was 2.09 µM. It also gave a TGI [8] of 23.3 µM, a GI50 [9] of 4.02 µM and a TGI [9] of 46.4 µM. The GI50 [10] was 4.83 µM and the TGI [10] was 47 µM.
